We go through two molecules from ChEMBL document CHEMBL1134960, “Benzotrithiole 2-oxide: a new family of thiol-activated DNA-cleaving functionalities” (Bioorg Med Chem Lett, 2002).

pIC50: −log10 of the molar value.

Common to all, as to type: functional, cell-based
For one assay, the system named is A498. Kind of assay: Cytotoxicity against human kidney carcinoma cell lines A4982LM.
In the next assay the test system is UMUC3. Briefly: Cytotoxicity against bladder cancer cell lines UMUC3 was determined. Particulars: Homo sapiens.
The next assay has as its system PC-3. Kind of assay: Cytotoxicity against prostate cancer cell lines PC-3 was determined. Conditions: Homo sapiens.
The nature of assay [1]: Cytotoxicity against Breast cancer cell lines MDA-231 was determined. Particulars: Homo sapiens.
For the next assay, the system named is A549. Kind of assay: Cytotoxicity against […] cell lines A549 was determined. Conditions: Homo sapiens.
The subject of a further assay is HT-29. Kind of assay: Cytotoxicity against Colon cancer cell lines HT-29 was determined. Particulars: Homo sapiens.
The subject of another assay is MCF7. Briefly: Cytotoxicity against human breast carcinoma cell lines MCF-7.
The nature of assay [2]: Cytotoxicity against […] cancer cell lines PACA2 was determined. Conditions: Homo sapiens.

By pIC50 is commonly meant the negative decadic logarithm of the IC50, by convention in mol/L. The low end stands for a high IC50, the high end for a low IC50. For `[O-][S+]1Sc2ccccc2S1`, the pIC50 was 6.07 in the assay on A498; 6.44 in the assay with UMUC3; 7.20 in the assay with PC-3; 6.20 in assay [1]; 6.82 in the assay with A549; 7.10 with HT-29. In addition, the pIC50 with MCF7 is 6.68; in assay [2], 6.01.

Take `COc1cccc2c1C(=O)c1c(O)c3c(c(O)c1C2=O)C[C@@](O)(C(=O)CO)C[C@@H]3O[C@H]1C[C@H](N)[C@H](O)[C@H](C)O1` [DOXORUBICIN]: the pIC50 in the assay on A498 was 7.28; with UMUC3 it was 8.04; in assay [1] it was 8.71; with HT-29, 7.21; in assay [2] it was 8.06.
